Where “and” joins values, the source holds several entries; their conditions need not be identical. Equal entries are not always repeated. Structures can show the parent of a compound that is named as a salt. Where two headings read alike, the source gives them in different places.
How the values were obtained:
[1] = tested on: indomethacin-induced gastric lesions; test: Prevention of indomethacin-induced gastric lesions in rats; format: in vivo, rat (male, CD strain); conditions: for ED50: Rattus norvegicus, po, mg/kg of free base, read-out: ID50 (the source's name)
Source text: Rats for testing were ordered to arrive the week before being tested, and acclimated that first week. Male, CD strain rats were used. By ordering at 100-125 grams, body weights during the second week generally ranged from 150-200 grams. Rats were fasted the day before the test, with food removed from the gang cages no later than 4 p.m. Following an overnight fast a loss of 15-20 grams body weight was anticipated, so volumes of test solutions required for the following day could be estimated. Water was allowed ad lib overnight and during the test itself. On the test day both oral and intraperitoneal dosing was done with volumes of 4.0 ml/kg. Therefore, by knowing approximate body weights (and therefore required volumes) as well as drug doses (mg/kg) to be used, the amount of antiulcer drug and indomethacin needed was determined and preweighed into test tubes the day before the test. The antiulcer drugs to be tested, in the form of their dihydrochloride salts, were put into solution or suspended. Distilled water was normally the vehicle used. Indomethacin was suspended in saline and homogenized with a small drop of Tween 80 (polysorbate 80) to prevent aggregation of particles. The indomethacin will not stay suspended in the saline, and it is critical that the test tube be well vortexed and the drug resuspended before each dose is drawn into a syringe. A random sample of the rats to be tested (usually about 20% of the total test group) was used to determine average body weight of the group. […] The rats were removed from the gang cage, given the test drug or vehicle p.o., and placed in individual cages. The timing of antiulcer drug dosing relative to the indomethacin challenge varied depending on the specific protocol used. As a typical test consisted of 7 groups of 7 rats each, a predose time of 45 minutes was conveniently used. This allowed about one minute to orally dose each rat. Indomethacin was administered i.p. after the predose time had elapsed. In the typical test mentioned above, this required going back to the first rat and beginning indomethacin injections as soon as the drug dosing was completed. To keep the predose time consistent, rats were also given the indomethacin at a rate of about one per minute. If the test compound was not expected to have a long duration of action, it was desirable to administer a second dose of antiulcer drug during the test. The typical time between indomethacin administration and sacrifice is 6.5 hours. […] Of course, control animals were also dosed with vehicle at this time. The rats were sacrificed 6.5 hours after administration of the indomethacin. The stomachs were excised, opened along the greater curvature, and rinsed under running water. Lightly rubbing the mucosa while holding it in the stream of water helped to remove some mucus and large clots of blood, but vigorous rubbing was avoided as it may dislodge blood from the indomethacin-induced hemorrhagic erosions, making the erosions extremely difficult to see. Next the stomachs were placed flat, mucosa side up, on a tray covered with saline-soaked towels. The lesions were then counted, or the stomachs held overnight for examination the following day. If they were stored overnight, the stomachs were first moistened with saline and placed in a polyethylene bag and in a refrigerator. The indomethacin-induced gastric lesions usually appeared as dark brown or black colored erosions in the corpus (the acid-secreting portion) of the stomach. The dark coloration is caused by the action of the gastric acid on blood within the erosion. Lesions were either punctate or linear in nature. Quantitative determination of lesion size has shown that the average lesion length is about 1 mm. Regardless of size, each individual lesion was counted as one. However, if one group of animals obviously had lesions of a different nature than the controls, this fact was recorded. […]

[2] = tested on: gastric lesions induced by the ethanolamine salt of piroxicam; test: Gastric lesions in rats induced by the ethanolamine salt of piroxicam; format: in vivo, rat; conditions: for ED50: Rattus norvegicus, po, 6.5 h, linear regression analyses
Method: (§1) Adult male "specific pathogen free" rats weighing 140-160 grams of the CD strain (Sprague-Dawley) were obtained from Charles River Breeding Laboratories (Kingston, N.Y.). The animals were acclimated for approximately one week and tested when they reached a body weight of 200-225 grams. The rats were fasted for 16 hours and randomized into groups consisting of 8 to 10 animals which were normalized with regard to their average body weight. Gastric ulcers were induced in the animals by orally dosing the animals with a single 100 mg/kg dose of piroxicam solution containing the drug dissolved in 2 ml 0.1% methylcellulose in water (pH=6.8). Those animals receiving 2-guanidino-4-(2-methyl-4-imidazolyl)thiazole (0.3, 1.0, 3.3 or 10.0 mg/kg as the dihydrochloride salt) separately received that drug, dissolved in an additional 2 ml of the same medium, at about the same time. Six and one-half hours later, the animals were sacrificed by cervical dislocation and autopsied. The stomachs were surgically removed, dissected along the greater curvature and rinsed with cold water. The stomachs were individually scored for both linear and punctate lesions. The total number of lesions was used for scoring purposes. The data obtained from each group of rats was analyzed after calculation of the mean number +/- the standard error of total gastric lesions. The values obtained were also compared to the controls which received only piroxicam by the two-tailed Student's t-test for nonpaired data.
According to the preceding Example, gastric ulcers were induced by a single dose of 100 mg of the ethanolamine salt of piroxicam. Test groups received 0.3, 1.0 and 3.3 mg/kg doses of 2-guanidino-4-(2-methyl-4-imidazolyl)thiazole.
This test was repeated, using 120 mg of the ethanolamine salt of piroxicam to induce ulcers.
According to Examples 2 and 3, gastric ulcers were induced by a single dose of 120 mg of the ethanolamine salt of piroxicam. Test groups received 0.03, 0.10 and 0.33 mg/kg doses of 2-(N-pentyl-N'-guanidino)-4-(2-methyl-4-imidazolyl)thiazole dihydrochloride.

[3] = tested on: piroxicam-induced gastric lesions; test: Piroxicam-induced gastric lesions in rats; format: in vivo, rat (male, CD strain, Sprague-Dawley)
Method: as §1, with “The values obtained were also compared to the controls which received only piroxicam by the two-tailed Student's t-test for nonpaired data.” left out

[4] = tested on: adjuvant-induced arthritis; test: Adjuvant-induced arthritis in the rat (inhibition of paw edema); format: in vivo, rat (male Wistar-Lewis); conditions: for % Inhibition of Lesions, Primary: day 4, injected paw; for % Inhibition of Lesions, Secondary: day 16, non-injected paw; for ED50: Rattus norvegicus, po, piroxicam alone, linear regression analysis
Method: Adjuvant arthritis was induced in adult male Wistar-Lewis rats weighing 250-270 grams each (Charles River Breeding Laboratories, Kingston, N.Y.) by a single subplantar injection of 1 mg of Mycobacterium butyricum (Difco Laboratories, Lot #0640-33) suspended in 0.1 ml mineral oil as described by Walz et al. (Proc. Soc. Exptl. Biol. Med., 136: 907-910, 1971). Seven rats were used in each group. Orally administered drugs were dissolved in water and dilute sodium hydroxide was added as necessary to ensure solution; control groups received only water. After neutralization of the solutions to pH 7.0, a volume of 10 ml/kg body weight was given by intubation with a blunt end, 18-gauge needle. Doses of each drug were given daily starting 1 day before the injection of adjuvant and continuing until 16 days after the induction of the arthritic lesion.
The initial hindpaw volumes (Vi) were measured on the day of adjuvant injection and the resultant swelling was determined on the injected paw (Vf - Vi) on the 4th day following the adjuvant injection. This was considered to be the primary response or lesion. The swelling (Vf - Vi) measured 16 days after adjuvant injection on the contralateral, non-injected hindpaw constituted the secondary response or lesion. The rats were weighed at the start of the experiments as well as 4 and 16 days after the induction of the disease. Percent inhibition of edema was calculated according to the following formula: [formula] […] This shift represents a 5 fold increase in the potency of piroxicam.

ethanol-induced ulcers = test: Inhibition of ethanol-induced ulceration in rats; format: in vivo, rat (male); conditions: as dihydrobromide salt
Method: The antiulcer activity of the products of Examples 9 and 10 was also determined by an ethanol-induced rat ulcer assay. In this test, overnight fasted male rats are given drug (at 30 or 3 mg/kg) or water orally fifteen minutes prior to an orally administered dose of absolute ethanol (1.0 ml). One hour after the ethanol challenge the animals (8/group) are killed and the stomachs examined for the presence of lesions. After sacrifice the abdomen is opened and a locking hemostat placed at the pylorus. Six ml of a 4% solution of formaldehyde was injected into the stomach with a gastric feeding tube and a second locking hemostat was used to seal the esophagus. The stomach was removed, opened along the greater curvature and examined for ulceration.
The scoring system used to quantitate the ethanol-induced lesions is given below.
For each group of animals an ulcer index is calculated as follows: [formula]
The percentage inhibition of ulcers is calculated as follows: [formula]

[5] = particularly with indomethacin; cited from earlier work
[6] = Compound A oral dose 10.0 mg/kg

SMILES: Cc1nc(-c2csc(NC(=N)N)n2)c[nH]1.Cl.Cl [Compound A, 2-Guanidino-4-(2-methyl-4-imidazolyl)thiazole Dihydrochloride]
- ED50 ([1]; single drug dose, obtained by extrapolation): 1.4 mg/kg
- ED50 ([1]; two drug doses, obtained by extrapolation): 1.5 mg/kg
- Reduction in lesion number ([1]; lowest dose tested, 2.2 mg/kg): 63%
- Reduction in gastric lesions induced by the ethanolamine salt of piroxicam (in words) ([2]; 0.3-3.3 mg/kg, piroxicam ethanolamine salt 100 mg): significant reduction in gastric lesions
- ED50 ([2]; piroxicam ethanolamine salt 100 mg): 0.88 mg/kg
- ED50 ([2]; piroxicam ethanolamine salt 120 mg): 0.3 mg/kg
- Reduction of piroxicam-induced gastric lesions (in words) ([3]; 0.3-10 mg/kg p.o.): significantly reduced piroxicam-induced gastric lesions
- ED50 ([3]; Rattus norvegicus, po, 6.5 h, linear regression analyses, piroxicam 100 mg/kg): 0.32 mg/kg
- % Inhibition of Lesions, Primary ([4]; Compound A oral dose 1.0 mg/kg): 0 (6) %
- % Inhibition of Lesions, Secondary ([4]; Compound A oral dose 1.0 mg/kg): 3 (3) %
- % Inhibition of Lesions, Primary ([4]; Compound A oral dose 3.3 mg/kg): 0 (3) %
- % Inhibition of Lesions, Secondary ([4]; Compound A oral dose 3.3 mg/kg): 28 (4) %
- % Inhibition of Lesions, Primary [4, 6]: 2 (2) %
- % Inhibition of Lesions, Secondary [4, 6]: 27 (3) %
- Activity against secondary lesions (in words) ([4]; compound alone): significant activity against secondary lesions
- Activity for primary lesions (in words) ([4]; compound alone): no significant activity
- ED50 against secondary lesions (in words) ([4]; compound alone): no reliable ED50 could be extrapolated

SMILES: CCCCCCNc1nc(-c2csc(NC(=N)N)n2)c[nH]1 [Compound B, 2-Guanidino-4-(2-hexylamino-4-imidazolyl)thiazole]
- ED50 ([1]; two drug doses): 10.5 mg/kg

SMILES: Cc1nc(-c2csc(N=C(N)NCc3ccccc3)n2)c[nH]1 [Compound C, 2-(N-Benzyl-N'-guanidino)-4-(2-methyl-4-imidazolyl)thiazole Dihydrochloride]
- ED50 ([1]; two drug doses): 4.4 mg/kg
- Inhibition of ethanol-induced ulceration (ethanol-induced ulcers; oral dose 3 mg/kg): at least 40%
- Inhibition of ethanol-induced ulceration (ethanol-induced ulcers; oral dose 30 mg/kg): at least 77%

SMILES: N=C(N)Nc1nc(-c2c[nH]cn2)cs1 [Compound D, 2-guanidino-4-(4-imidazolyl)thiazole]
- ED50 ([1]; single drug dose): 7.5 mg/kg
- ED50 ([1]; two drug doses): 2 mg/kg

SMILES: CCCCCNC(N)=Nc1nc(-c2c[nH]c(C)n2)cs1 [Example 10, 4-(2-Methyl-4-imidazolyl)-2-(N-pentyl-N'-guanidino)thiazole Dihydrochloride]
- Inhibition of ethanol-induced ulceration (ethanol-induced ulcers; oral dose 3 mg/kg): at least 40%
- Inhibition of ethanol-induced ulceration (ethanol-induced ulcers; oral dose 30 mg/kg): at least 77%
- Reduction in gastric lesions induced by the ethanolamine salt of piroxicam (in words) ([2]; Example 13, 0.03-0.33 mg/kg): significant reduction in gastric lesions
- ED50 ([2]; Example 13, piroxicam ethanolamine salt 120 mg): 0.1 mg/kg

SMILES: CN1C(C(=O)Nc2ccccn2)=C(O)c2ccccc2S1(=O)=O [Piroxicam]
- ED50 ([4]; 96 h, read-out: ED50 against primary lesions): 2.6 mg/kg
- ED50 ([4]; 384 h, read-out: ED50 against secondary lesions): 0.45 mg/kg
- % Inhibition of Lesions, Primary ([4]; piroxicam oral dose 0.10 mg/kg): 29 (4) %
- % Inhibition of Lesions, Secondary ([4]; piroxicam oral dose 0.10 mg/kg, 0.1 mg/kg): 26 (2) % and 26%
- % Inhibition of Lesions, Primary ([4]; piroxicam oral dose 0.33 mg/kg): 33 (8) %
- % Inhibition of Lesions, Secondary ([4]; piroxicam oral dose 0.33 mg/kg, 0.33 mg/kg): 43 (4) % and 43%
- % Inhibition of Lesions, Primary ([4]; piroxicam oral dose 1.00 mg/kg): 45 (7) %
- % Inhibition of Lesions, Secondary ([4]; piroxicam oral dose 1.00 mg/kg, 1 mg/kg): 64 (3) % and 64%

SMILES: N[C@@](CF)(Cc1c[nH]cn1)C(=O)O [alphafluoromethylhistidine]
- Antiinflammatory activity (in words) [5]: synergistic antiinflammatory activity
